Results published in patent US4390629A, “Polypeptide degrading enzymes” (President and Fellows of Harvard College, priority 1981, dated 1983).
Read-outs that look alike come from different tables or passages of the source.

How the values were obtained:
La [1] = target: T1, La (Escherichia coli, UniProt P0A9M0)
La [2] = target: T1, La; experiment: biochemical; conditions: read-out: stimulation of globin-degrading activity in peak IV
Protease Ci = experiment: Inhibition and stimulation of protease Ci insulin-degrading activity; format: biochemical, E. coli
Fa = format: biochemical, E. coli
Protease Re = target: T2, Protease Re (Escherichia coli, UniProt P23865); experiment: Sensitivity of protease Re proteolytic activity (casein) to inhibitors; format: biochemical, E. coli
T2 sequence (P23865 23-682): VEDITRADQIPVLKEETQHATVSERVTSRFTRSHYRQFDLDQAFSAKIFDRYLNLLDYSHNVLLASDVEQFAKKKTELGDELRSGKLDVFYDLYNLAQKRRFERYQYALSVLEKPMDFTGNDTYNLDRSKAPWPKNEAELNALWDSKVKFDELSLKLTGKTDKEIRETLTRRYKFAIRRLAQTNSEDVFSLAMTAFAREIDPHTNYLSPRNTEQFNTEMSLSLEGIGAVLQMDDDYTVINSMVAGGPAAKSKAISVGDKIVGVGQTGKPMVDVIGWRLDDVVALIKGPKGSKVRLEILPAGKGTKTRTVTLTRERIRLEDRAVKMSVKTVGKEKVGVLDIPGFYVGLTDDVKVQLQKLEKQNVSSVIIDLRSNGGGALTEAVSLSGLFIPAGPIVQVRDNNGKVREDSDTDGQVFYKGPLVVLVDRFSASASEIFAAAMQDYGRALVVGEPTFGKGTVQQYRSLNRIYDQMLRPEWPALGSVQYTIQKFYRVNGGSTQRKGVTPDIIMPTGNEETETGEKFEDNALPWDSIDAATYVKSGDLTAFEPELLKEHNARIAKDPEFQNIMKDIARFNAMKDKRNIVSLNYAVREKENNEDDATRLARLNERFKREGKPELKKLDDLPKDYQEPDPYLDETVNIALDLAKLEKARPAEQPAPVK

Mi = format: biochemical, E. coli
Protease So = format: biochemical, E. coli
[^14 C] globin = Degradation of [14C] globin to acid-soluble products; format: biochemical, beef
[^3 H] casein = Degradation of [3H] casein to acid-soluble products; format: biochemical, bovine

Nc1ncnc2c1ncn2[C@@H]1O[C@H](COP(=O)(O)OP(=O)(O)OP(=O)(O)O)[C@@H](O)[C@H]1O [ATP]
increase of degradation of globin and casein by La (La [1]; 3000 µM): 2.5-20 fold
fold induction at 3000 µM (La [2]): 4 to 20

Nc1ccn([C@@H]2O[C@H](COP(=O)(O)OP(=O)(O)OP(=O)(O)O)[C@@H](O)[C@H]2O)c(=O)n1 [CTP]
stimulation of La proteolysis by nucleotides (in words) (La [1]): stimulate but less effectively

[Co+2] [Co^++]
stimulation of protease Ci activity by divalent cations (Protease Ci): markedly stimulated

O=C(O)CN(CCN(CC(=O)O)CC(=O)O)CC(=O)O [EDTA]
inhibition of Fa (Fa): 60%
sensitivity of protease Re to inhibitor (Protease Re): sensitive
inhibition of Mi (Mi): about 35%

O=C(O)CN(CCOCCOCCN(CC(=O)O)CC(=O)O)CC(=O)O [EGTA]
inhibition of protease Ci activity (Protease Ci): not

[Mn+2] [Mn^++]
stimulation of protease Ci activity by divalent cations (Protease Ci): markedly stimulated

CCN1C(=O)C=CC1=O [N-ethyl maleimide]
sensitivity of La to inhibitor (La [1]): inhibited

O=c1ccn([C@@H]2O[C@H](COP(=O)(O)OP(=O)(O)OP(=O)(O)O)[C@@H](O)[C@H]2O)c(=O)[nH]1 [UTP]
stimulation of La proteolysis by nucleotides (in words) (La [1]): stimulate but less effectively

[O]=[V]([O-])([O-])[O-] [Vanadate]
sensitivity of La to inhibitor (La [1]): sensitive to inhibition

[Zn+2] [Zn^++]
stimulation of protease Ci activity by divalent cations (Protease Ci): not

Nc1ncnc2c1ncn2[C@H]1C[C@H](O)[C@@H](COP(=O)(O)OP(=O)(O)OP(=O)(O)O)O1 [deoxyadenosine triphosphate]
stimulation of La proteolysis by nucleotides (in words) (La [1]): stimulate but less effectively

CCCCCCC1OC(=O)CNC(=O)C(C(C)O)NC(=O)C(CO)NC(=O)C(C(C)CC)NC(=O)C(CC(C)C)N(C)C(=O)C1C (centres unmarked) [globomycin]
inhibition of protease Ci activity by antibiotics (Protease Ci; concentrations of 5-20 μg per ml): strongly inhibit

c1cnc2c(c1)ccc1cccnc12 [o-phenanthroline]
inhibition of protease Ci activity (Protease Ci): inhibited
inhibition of Fa (Fa): about 35%
sensitivity of protease Re to inhibitor (Protease Re; casein as substrate): sensitive
inhibition of Mi (Mi): about 35%

O=C(O)c1cc[c]([Hg+])cc1.[OH-] [p-hydroxymercuribenzoate]
inhibition of protease Ci activity (Protease Ci): sensitive

N=C(N)c1ccc(OCCCCCOc2ccc(C(=N)N)cc2)cc1 [pentamidine]
inhibition of protease So (Protease So): about 80%

O=S(=O)(F)Cc1ccccc1 [phenylmethyl sulfonyl fluoride]
sensitivity of protease So to inhibitor (Protease So): sensitive
sensitivity of La to inhibitor (La [1]): sensitive
sensitivity of protease Re to inhibitor (Protease Re): sensitive

bacitracin
inhibition of protease Ci activity by antibiotics (Protease Ci): strongly inhibit

B1: La: ATP-dependent cytoplasmic E. coli serine protease of peak IV, about 115,000 daltons (protein, UniProt P0A9M0 2-784, looked up)
Lon protease: NPERSERIEIPVLPLRDVVVYPHMVIPLFVGREKSIRCLEAAMDHDKKIMLVAQKEASTDEPGVNDLFTVGTVASILQMLKLPDGTVKVLVEGLQRARISALSDNGEHFSAKAEYLESPTIDEREQEVLVRTAISQFEGYIKLNKKIPPEVLTSLNSIDDPARLADTIAAHMPLKLADKQSVLEMSDVNERLEYLMAMMESEIDLLQVEKRIRNRVKKQMEKSQREYYLNEQMKAIQKELGEMDDAPDENEALKRKIDAAKMPKEAKEKAEAELQKLKMMSPMSAEATVVRGYIDWMVQVPWNARSKVKKDLRQAQEILDTDHYGLERVKDRILEYLAVQSRVNKIKGPILCLVGPPGVGKTSLGQSIAKATGRKYVRMALGGVRDEAEIRGHRRTYIGSMPGKLIQKMAKVGVKNPLFLLDEIDKMSSDMRGDPASALLEVLDPEQNVAFSDHYLEVDYDLSDVMFVATSNSMNIPAPLLDRMEVIRLSGYTEDEKLNIAKRHLLPKQIERNALKKGELTVDDSAIIGIIRYYTREAGVRGLEREISKLCRKAVKQLLLDKSLKHIEINGDNLHDYLGVQRFDYGRADNENRVGQVTGLAWTEVGGDLLTIETACVPGKGKLTYTGSLGEVMQESIQAALTVVRARAEKLGINPDFYEKRDIHVHVPEGATPKDGPSAGIAMCTALVSCLTGNPVRADVAMTGEITLRGQVLPIGGLKEKLLAAHRGGIKTVLIPFENKRDLEEIPDNVIADLDIHPVKRIEEVLTLALQNEPSGMQVVTAK
degradation of globin ([^14 C] globin): capable of degrading
degradation of casein ([^3 H] casein): capable of degrading

B2: Do: E. coli serine protease of about 520,000 daltons, degrades globin and casein (protein, UniProt P0C0V0 27-474, looked up)
Periplasmic serine …: AETSSATTAQQMPSLAPMLEKVMPSVVSINVEGSTTVNTPRMPRNFQQFFGDDSPFCQEGSPFQSSPFCQGGQGGNGGGQQQKFMALGSGVIIDADKGYVVTNNHVVDNATVIKVQLSDGRKFDAKMVGKDPRSDIALIQIQNPKNLTAIKMADSDALRVGDYTVAIGNPFGLGETVTSGIVSALGRSGLNAENYENFIQTDAAINRGNSGGALVNLNGELIGINTAILAPDGGNIGIGFAIPSNMVKNLTSQMVEYGQVKRGELGIMGTELNSELAKAMKVDAQRGAFVSQVLPNSSAAKAGIKAGDVITSLNGKPISSFAALRAQVGTMPVGSKLTLGLLRDGKQVNVNLELQQSSQNQVDSSSIFNGIEGAEMSNKGKDQGVVVNNVKTGTPAAQIGLKKGDVIIGANQQAVKNIAELRKVLDSKPSVLALNIQRGDSTIYLLMQ
degradation of globin ([^14 C] globin): hydrolyze
degradation of casein ([^3 H] casein): hydrolyze
